According to US20070191431A1, “2-Amino-5-piperidinylimidazolone compounds and use thereof for beta-secretase modulation” (Wyeth, priority 2005, published 2007):
Where two headings read alike, the source gives them in different places.

Columns and labels:
[1] = target: human BACE1 (Homo sapiens, UniProt P56817); assay: BACE-1 fluorescent kinetic assay (Example 88); format: biochemical
Experimental: Evaluation of BACE-1 Binding Affinity of Test Compounds
Fluorescent Kinetic Assay
Dilution and mixing steps: total reaction volume: 100 μL
100 μM substrate dilution in 1× PBS was prepared, and
Fluorescence Readings: Readings at Aex 320 nm and Aem 420 nm are taken every 40 sec for 30 min at room temperature and the linear slope for substrate cleavage rate (vi) determined.

[2] = 10 nM enzyme, 25 μM substrate WABC-6, Na-Acetate pH 4.5, room temperature, read-out: BACE1 (IC50 μM)

human BACE1, sequence (P56817 46-501): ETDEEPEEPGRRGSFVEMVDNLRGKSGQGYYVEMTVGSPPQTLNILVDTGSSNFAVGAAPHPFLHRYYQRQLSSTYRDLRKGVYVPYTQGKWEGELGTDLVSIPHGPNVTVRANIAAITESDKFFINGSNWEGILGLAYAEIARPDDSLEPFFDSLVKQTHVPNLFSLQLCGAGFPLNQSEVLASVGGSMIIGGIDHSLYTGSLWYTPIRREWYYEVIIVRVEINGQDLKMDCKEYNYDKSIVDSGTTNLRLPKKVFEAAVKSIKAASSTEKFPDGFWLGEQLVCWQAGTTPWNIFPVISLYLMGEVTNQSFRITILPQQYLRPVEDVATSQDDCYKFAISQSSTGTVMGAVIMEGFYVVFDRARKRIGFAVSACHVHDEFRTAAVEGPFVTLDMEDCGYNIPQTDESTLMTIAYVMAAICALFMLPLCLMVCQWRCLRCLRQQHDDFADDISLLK

Structure (SMILES)	melting point	IC50 [1, 2]	IC50 [1]
CN1C(=O)C(c2cccc(-c3cc(F)cc(F)c3)c2)(C2CCN(C(=O)c3ccccc3)CC2)N=C1N (stereo not drawn) [Example 87, 2-amino-5-(1-benzoylpiperidin-4-yl)-5-(3′,5′-difluorobiphenyl-3-yl)-3-methyl-3,5-dihydro-4H-imidazol-4-one]	> 150 °C (dec.)	0.01 to 1 µM	–
COCC(=O)Nc1cccc(C2(C3CCN(C(=O)c4ccc(C#N)cc4)CC3)N=C(N)N(C)C2=O)c1 (stereo not drawn) [Example 52]	160 to 164 °C	0.01 to 1 µM	–
CN1C(=O)C(c2cccc(-c3ccccc3)c2)(C2CCN(C(=O)c3ccoc3)CC2)N=C1N (stereo not drawn) [Example 10, 2-amino-5-(1,1′-biphenyl-3-yl)-5-[1-(3-furoyl)piperidin-4-yl]-3-methyl-3,5-dihydro-4H -imidazol-4-one]	93 to 95 °C	0.01 to 1 µM	–
COCC(=O)Nc1cccc(C2(C3CCN(C(=O)c4ccc(O)cc4)CC3)N=C(N)N(C)C2=O)c1 (stereo not drawn) [Example 34, N-(3-{2-Amino-4-[1-(4-hydroxybenzoyl)piperidin4-yl]-1-methyl-5-oxo-4,5-dihydro-1H-imidazol-4-yl}phenyl)-2-methoxyacetamide]	184 to 187 °C	0.01 to 1 µM	–
COCC(=O)Nc1cccc(C2(C3CCN(C(=O)COC)CC3)N=C(N)N(C)C2=O)c1 (stereo not drawn) [Example 56]	79 to 80 °C	1.01 to 3 µM	–
COCC(=O)Nc1cccc(C2(C3CCN(C(=O)c4cccc(F)c4)CC3)N=C(N)N(C)C2=O)c1 (stereo not drawn) [Example 50]	150 to 153 °C	0.01 to 1 µM	–
COc1cncc(-c2cccc(C3(C4CCN(C(=O)c5ccccc5)CC4)N=C(N)N(C)C3=O)c2)c1 (stereo not drawn) [Example 82, 2-amino-5-(1-benzoylpiperidin-4-yl)-5-[3-(5-methoxypyridin-3-yl)phenyl]-3-methyl-3,5-dihydro-4H-imidazol-4-one]	150 to 153 °C	0.01 to 1 µM	–
COCC(=O)Nc1cccc(C2(C3CCN(C(=O)C(F)(F)F)CC3)N=C(N)N(C)C2=O)c1 (stereo not drawn) [Example 58]	120 to 122 °C	0.01 to 1 µM	–
COCC(=O)Nc1cccc(C2(C3CCN(C(=O)c4ccc5ccccc5c4)CC3)N=C(N)N(C)C2=O)c1 (stereo not drawn) [Example 54]	168 to 170 °C	0.01 to 1 µM	–
CN1C(=O)C(c2ccccc2)(C2CCNCC2)N=C1N (stereo not drawn) [Example 27, 2-Amino-3-methyl-5-phenyl-5-piperidin-4-yl-3,5-dihydro-4H -imidazol-4-one]	269 to 271 °C	–	> 3 µM
COCC(=O)Nc1cccc(C2(C3CCN(C(=O)c4ccc(C(=O)OC)cc4)CC3)N=C(N)N(C)C2=O)c1 (stereo not drawn) [Example 35, Methyl 4-{[4-(2-amino-4-{3-[(methoxyacetyl)amino]phenyl}-1-methyl-5-oxo-4,5-dihydro-1H-imidazol-4-yl)piperidin-1-yl]carbonyl}benzoate]	161 to 163 °C	0.01 to 1 µM	–
COCC(=O)Nc1cccc(C2(C3CCN(C(=O)c4cccs4)CC3)N=C(N)N(C)C2=O)c1 (stereo not drawn) [Example 55]	148 to 152 °C	0.01 to 1 µM	–
